Our source for the Ki and Km values is paper PMC11539071, “Optimization of Biocatalytic Rhododendrol Production from Biogenic Rhododendrol Glycosides” (ACS Sustainable Chemistry & Engineering, 2024).

The target of assay [1] is T1, β-glucosidase from almonds.
T1 construct: gene emulsin; native commercial enzyme preparation from almonds (Sigma-Aldrich)
Description: initial rates by HPLC, product inhibition fit. Format: biochemical, Prunus dulcis. Particulars: competitive; substrate betuloside at saturating level; 0.1 M phosphate buffer pH 6, 40 °C. From the text:
initial rates by HPLC, product inhibition fit on β-glucosidase from almonds

For assay [2], the system named is T1, β-glucosidase from almonds. Description: initial rates by HPLC of rhododendrol, Michaelis-Menten fit. Particulars: 0.1 M phosphate buffer pH 6, 40 °C; substrate from crude glycoside mixture containing apiosylrhododendrin. The class given is biochemical, Prunus dulcis. From the text: initial rates by HPLC of rhododendrol, Michaelis-Menten fit on β-glucosidase from almonds

SMILES strings stand for the structures.

One may read the Ki as a measure of affinity in units of concentration, obtained from inhibition or displacement. The Km is the concentration of substrate that gives half-maximal velocity.

On to `OC[C@H]1OC(O)[C@H](O)[C@@H](O)[C@@H]1O` (stereo partly drawn) [glucose], for which, in assay [1], the Ki was determined as 65.5 ± 17.2 mM.

`CC(O)CCc1ccc(O)cc1` (racemic) [rhododendrol] displayed an inhibition constant Ki in assay [1] of 7.13 ± 2.2 mM.

For `C[C@H](CCc1ccc(O)cc1)O[C@@H]1O[C@H](CO)[C@@H](O)[C@H](O)[C@H]1O` (mixture of isomers) [betuloside], the Km in assay [2] is 26.7 ± 3.76 mM.
